Data reported in patent US12226412B2, “Heteroaryl-ketone fused azadecalin glucocorticoid receptor modulators” (Corcept Therapeutics, Inc., priority 2012, dated 2025).

Legend:
human recombinant GR = molecular target: T1, human recombinant GR (Homo sapiens, UniProt P04150); assay: Human glucocorticoid receptor (GR) fluorescence polarisation (FP) binding assay; conditions: human recombinant GR, fluorescence polarisation binding assay; read-out: GR binding
T1 construct: purchased PanVera P2812
T1 sequence (P04150 1-777): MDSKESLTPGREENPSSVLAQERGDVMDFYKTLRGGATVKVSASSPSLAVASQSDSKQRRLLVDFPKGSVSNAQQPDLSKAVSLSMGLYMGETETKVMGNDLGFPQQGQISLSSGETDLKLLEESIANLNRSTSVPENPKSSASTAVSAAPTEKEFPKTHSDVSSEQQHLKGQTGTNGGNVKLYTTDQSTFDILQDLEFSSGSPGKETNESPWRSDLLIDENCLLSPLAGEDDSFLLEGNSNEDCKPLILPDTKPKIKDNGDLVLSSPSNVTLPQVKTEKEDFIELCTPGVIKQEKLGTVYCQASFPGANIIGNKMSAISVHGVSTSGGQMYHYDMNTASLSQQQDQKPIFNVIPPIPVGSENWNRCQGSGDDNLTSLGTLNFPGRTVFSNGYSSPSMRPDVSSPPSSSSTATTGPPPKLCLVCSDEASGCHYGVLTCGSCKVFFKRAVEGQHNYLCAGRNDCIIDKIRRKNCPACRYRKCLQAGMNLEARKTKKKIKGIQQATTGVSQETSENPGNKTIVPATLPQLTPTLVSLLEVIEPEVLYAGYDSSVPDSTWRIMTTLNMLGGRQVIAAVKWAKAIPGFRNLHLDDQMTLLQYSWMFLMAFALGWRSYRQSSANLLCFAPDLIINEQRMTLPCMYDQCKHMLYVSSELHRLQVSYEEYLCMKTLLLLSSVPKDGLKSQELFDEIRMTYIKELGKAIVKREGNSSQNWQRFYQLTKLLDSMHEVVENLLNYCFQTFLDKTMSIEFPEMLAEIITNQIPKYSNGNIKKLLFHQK
Procedure, shortened: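 Competition fluorescence polarisation: 0.5 nM GS Red labelled glucocorticoid and 1 nM recombinant human GR with 8-point half-log compound series, 1% DMSO, 4 h room temperature, potassium phosphate pH 7.4 buffer with molybdate, EDTA, DTT. Affinity derived from the drop in polarisation, normalised to blank wells.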

[1] = tested on: induction of TAT by dexamethasone in HepG2 cells; assay: HepG2 tyrosine aminotransferase (TAT) assay; assay type: cell-based, human; conditions: HepG2 cells, challenge of 100 nM dexamethasone; Ki from IC50 by Cheng and Prusoff equation

Q: With `O=C(c1ccccn1)[C@]12Cc3cnn(-c4ccc(F)cc4)c3C=C1CCN(S(=O)(=O)c1ccc(F)c(Cl)c1)C2` [Example 11R, (R)-(6-((3-chloro-4-fluorophenyl)sulfonyl)-1-(4-fluorophenyl)-4,4a,5,6,7,8-hexahydro-1H-pyrazolo[3,4-g]isoquinolin-4a-yl)(pyridin-2-yl)methanone] as the compound, how does the Ki (human recombinant GR) read?
A: < 0.5 nM

Q: What about the Ki [1] of the same compound?
A: < 20 nM

Q: With `Cc1ccnc(C(=O)[C@]23Cc4cnn(-c5ccc(F)cc5)c4C=C2CCN(S(=O)(=O)c2cccc(C#N)c2)C3)c1` [Example 11S, (R)-3-((1-(4-fluorophenyl)-4a-(4-methylpicolinoyl)-4a,5,7,8-tetrahydro-1H-pyrazolo[3,4-g]isoquinolin-6 (4H)-yl)sulfonyl)benzonitrile] as the compound, how does the Ki (human recombinant GR) read?
A: < 0.5 nM

Q: And the Ki [1]?
A: < 20 nM

Q: Which Ki (human recombinant GR) does the source give for `Cc1ccnc(C(=O)[C@]23Cc4cnn(-c5ccc(F)cc5)c4C=C2CCN(S(=O)(=O)c2cnn(C)c2)C3)c1` [Example 11T, (R)-(1-(4-fluorophenyl)-6-((1-methyl-1H-pyrazol-4-yl)sulfonyl)-4,4a,5,6,7,8-hexahydro-1H-pyrazolo[3,4-g]isoquinolin-4a-yl)(4-methylpyridin-2-yl)methanone] here?
A: < 0.5 nM

Q: And the Ki [1]?
A: < 20 nM

Q: Which results are given for `Cc1ccnc(C(=O)[C@]23Cc4cnn(-c5ccc(F)cc5)c4C=C2CCN(S(=O)(=O)c2ccc(F)c(F)c2)C3)c1` [Example 11U, (R)-(6-((3,4-difluorophenyl)sulfonyl)-1-(4-fluorophenyl)-4,4a,5,6,7,8-hexahydro-1H-pyrazolo[3,4-g]isoquinolin-4a-yl)(4-methylpyridin-2-yl)methanone]?
A: Ki (human recombinant GR): < 0.5 nM; Ki [1]: < 20 nM

Q: With `Cc1ccnc(C(=O)[C@]23Cc4cnn(-c5ccc(F)cc5)c4C=C2CCN(S(=O)(=O)c2cn(C)cn2)C3)c1` [Example 11V, (R)-(1-(4-fluorophenyl)-6-((1-methyl-1H-imidazol-4-yl)sulfonyl)-4,4a,5,6,7,8-hexahydro-1H-pyrazolo[3,4-g]isoquinolin-4a-yl)(4-methylpyridin-2-yl)methanone] as the compound, how does the Ki (human recombinant GR) read?
A: < 0.5 nM

Q: What about the Ki [1] of the same compound?
A: 20 to 100 nM

Q: How did the Ki (human recombinant GR) turn out when `Cc1ccnc(C(=O)[C@]23Cc4cnn(-c5ccc(F)cc5)c4C=C2CCN(S(=O)(=O)c2cc(F)cc(F)c2)C3)c1` [Example 11W, (R)-(6-((3,5-difluorophenyl)sulfonyl)-1-(4-fluorophenyl)-4,4a,5,6,7,8-hexahydro-1H-pyrazolo[3,4-g]isoquinolin-4a-yl)(4-methylpyridin-2-yl)methanone] was run?
A: < 0.5 nM

Q: And the Ki [1]?
A: < 20 nM

Q: Which results are given for `Cc1ccnc(C(=O)[C@]23Cc4cnn(-c5ccc(F)cc5)c4C=C2CCN(S(=O)(=O)c2cc(F)c(F)c(F)c2)C3)c1` [Example 11X, (R)-(1-(4-fluorophenyl)-6-((3,4,5-trifluorophenyl)sulfonyl)-4,4a,5,6,7,8-hexahydro-1H-pyrazolo[3,4-g]isoquinolin-4a-yl)(4-methylpyridin-2-yl)methanone]?
A: Ki (human recombinant GR): < 0.5 nM; Ki [1]: < 20 nM

Q: For `CS(=O)(=O)c1cccc(S(=O)(=O)N2CCC3=Cc4c(cnn4-c4ccc(F)cc4)C[C@]3(C(=O)c3ccccn3)C2)c1` [Example 11Y, (R)-(1-(4-fluorophenyl)-6-((3-(methylsulfonyl)phenyl)sulfonyl)-4,4a,5,6,7,8-hexahydro-1H-pyrazolo[3,4-g]isoquinolin-4a-yl)(pyridin-2-yl)methanone], which Ki (human recombinant GR) is on record?
A: < 0.5 nM

Q: What about the Ki [1] of the same compound?
A: 20 to 100 nM

Q: `O=C(c1nccs1)[C@]12Cc3cnn(-c4ccc(F)cc4)c3C=C1CCN(S(=O)(=O)c1cccc(C(F)(F)F)c1)C2` [Example 12, (R)-(1-(4-fluorophenyl)-6-((3-(trifluoromethyl)phenyl)sulfonyl)-4,4a,5,6,7,8-hexahydro-1H-pyrazolo[3,4-g]isoquinolin-4a-yl)(thiazol-2-yl)methanone] was tested. Which Ki (human recombinant GR) did it give?
A: < 0.5 nM

Q: What about the Ki [1] of the same compound?
A: < 20 nM

Q: `Cc1cccc(S(=O)(=O)N2CCC3=Cc4c(cnn4-c4ccc(F)cc4)C[C@]3(C(=O)c3nccs3)C2)c1` [Example 12A, (R)-(1-(4-fluorophenyl)-6-(m-tolylsulfonyl)-4,4a,5,6,7,8-hexahydro-1H-pyrazolo[3,4-g]isoquinolin-4a-yl)(thiazol-2-yl)methanone] was tested. Which Ki (human recombinant GR) did it give?
A: < 0.5 nM

Q: What about the Ki [1] of the same compound?
A: < 20 nM

Q: How did the Ki (human recombinant GR) turn out when `COc1cccc(S(=O)(=O)N2CCC3=Cc4c(cnn4-c4ccc(F)cc4)C[C@]3(C(=O)c3nccs3)C2)c1` [Example 12B, (R)-(1-(4-fluorophenyl)-6-((3-methoxyphenyl)sulfonyl)-4,4a,5,6,7,8-hexahydro-1H-pyrazolo[3,4-g]isoquinolin-4a-yl)(thiazol-2-yl)methanone] was run?
A: 0.5 to 1 nM

Q: And the Ki [1]?
A: 20 to 100 nM

Q: What does the source list for `Cc1ccc(S(=O)(=O)N2CCC3=Cc4c(cnn4-c4ccc(F)cc4)C[C@]3(C(=O)c3nccs3)C2)cc1F` [Example 12C, (R)-(6-((3-fluoro-4-methylphenyl)sulfonyl)-1-(4-fluorophenyl)-4,4a,5,6,7,8-hexahydro-1H-pyrazolo[3,4-g]isoquinolin-4a-yl)(thiazol-2-yl)methanone]?
A: Ki (human recombinant GR): < 0.5 nM; Ki [1]: 20 to 100 nM

Q: With `O=C(c1nccs1)[C@]12Cc3cnn(-c4ccc(F)cc4)c3C=C1CCN(S(=O)(=O)c1ccccc1)C2` [Example 12D, (R)-(1-(4-fluorophenyl)-6-(phenylsulfonyl)-4,4a,5,6,7,8-hexahydro-1H-pyrazolo [3,4-g]isoquinolin-4a-yl)(thiazol-2-yl)methanone] as the compound, how does the Ki (human recombinant GR) read?
A: < 0.5 nM

Q: What about the Ki [1] of the same compound?
A: < 20 nM

Q: How did the Ki (human recombinant GR) turn out when `O=C(c1nccs1)[C@]12Cc3cnn(-c4ccc(F)cc4)c3C=C1CCN(S(=O)(=O)c1cccc(Cl)c1)C2` [Example 12E, (R)-(6-((3-chlorophenyl)sulfonyl)-1-(4-fluorophenyl)-4,4a,5,6,7,8-hexahydro-1H-pyrazolo[3,4-g]isoquinolin-4a-yl)(thiazol-2-yl)methanone] was run?
A: < 0.5 nM

Q: What about the Ki [1] of the same compound?
A: 20 to 100 nM

Q: How did the Ki (human recombinant GR) turn out when `Cc1ccc(C(=O)[C@]23Cc4cnn(-c5ccc(F)cc5)c4C=C2CCN(S(=O)(=O)c2cccc(C)c2)C3)nc1` [Example 12F, (R)-(1-(4-fluorophenyl)-6-(m-tolylsulfonyl)-4,4a,5,6,7,8-hexahydro-1H-pyrazolo [3,4-g]isoquinolin-4a-yl)(5-methylpyridin-2-yl)methanone] was run?
A: < 0.5 nM

Q: What about the Ki [1] of the same compound?
A: < 20 nM

Q: For `Cc1cccc(S(=O)(=O)N2CCC3=Cc4c(cnn4-c4ccc(F)cc4)C[C@]3(C(=O)c3cc(C)ccn3)C2)c1` [Example 12G, (R)-(1-(4-fluorophenyl)-6-(m-tolylsulfonyl)-4,4a,5,6,7,8-hexahydro-1H-pyrazolo[3,4-g]isoquinolin-4a-yl)(4-methylpyridin-2-yl)methanone], which Ki (human recombinant GR) is on record?
A: < 0.5 nM

Q: And the Ki [1]?
A: < 20 nM

Q: `Cc1cccc(S(=O)(=O)N2CCC3=Cc4c(cnn4-c4ccc(F)cc4)C[C@]3(C(=O)c3cccc(C)n3)C2)c1` [Example 12H, (R)-(1-(4-fluorophenyl)-6-(m-tolylsulfonyl)-4,4a,5,6,7,8-hexahydro-1H-pyrazolo[3,4-g]isoquinolin-4a-yl)(6-methylpyridin-2-yl)methanone] was tested. Which Ki (human recombinant GR) did it give?
A: < 0.5 nM

Q: What about the Ki [1] of the same compound?
A: < 20 nM

Q: How did the Ki (human recombinant GR) turn out when `O=C(c1nccs1)[C@]12Cc3cnn(-c4ccc(F)cc4)c3C=C1CCN(S(=O)(=O)c1ccc(F)c(C(F)(F)F)c1)C2` [Example 12I, (R)-(6-((4-fluoro-3-(trifluoromethyl)phenyl)sulfonyl)-1-(4-fluorophenyl)-4,4a,5,6,7,8-hexahydro-1H-pyrazolo[3,4-g]isoquinolin-4a-yl)(thiazol-2-yl)methanone] was run?
A: < 0.5 nM

Q: What about the Ki [1] of the same compound?
A: 20 to 100 nM

Q: With `O=C(c1nccs1)[C@]12Cc3cnn(-c4ccc(F)cc4)c3C=C1CCN(S(=O)(=O)c1cc(F)c(F)c(F)c1)C2` [Example 12J, (R)-(1-(4-fluorophenyl)-6-((3,4,5-trifluorophenyl)sulfonyl)-4,4a,5,6,7,8-hexahydro-1H-pyrazolo[3,4-g]isoquinolin-4a-yl)(thiazol-2-yl)methanone] as the compound, how does the Ki (human recombinant GR) read?
A: < 0.5 nM

Q: What about the Ki [1] of the same compound?
A: 20 to 100 nM

Q: How did the Ki (human recombinant GR) turn out when `O=C(c1nccs1)[C@]12Cc3cnn(-c4ccc(F)cc4)c3C=C1CCN(S(=O)(=O)c1ccc(C(F)(F)F)c(F)c1)C2` [Example 12K, (R)-(6-((3-fluoro-4-(trifluoromethyl)phenyl)sulfonyl)-1-(4-fluorophenyl)-4,4a,5,6,7,8-hexahydro-1H-pyrazolo[3,4-g]isoquinolin-4a-yl)(thiazol-2-yl)methanone] was run?
A: < 0.5 nM

Q: And the Ki [1]?
A: 20 to 100 nM

Q: What does the source list for `Cc1cnc(C(=O)[C@]23Cc4cnn(-c5ccc(F)cc5)c4C=C2CCN(S(=O)(=O)c2cccc(C(F)(F)F)c2)C3)s1` [Example 12L, (R)-(1-(4-fluorophenyl)-6-((3-(trifluoromethyl)phenyl)sulfonyl)-4,4a,5,6,7,8-hexahydro-1H-pyrazolo[3,4-g]isoquinolin-4a-yl)(5-methylthiazol-2-yl)methanone]?
A: Ki (human recombinant GR): < 0.5 nM; Ki [1]: < 20 nM
